# Reference: PMC3495945, “Org 214007-0: A Novel Non-Steroidal Selective Glucocorticoid Receptor Modulator with Full Anti-Inflammatory Properties and Improved Therapeutic Index” (PLoS ONE, 2012)
# Assays:
# [1] = system: primary human whole blood cells; assay: Human whole blood LPS-induced cytokine release; assay type: cell-based; settings: for IC50: Whole blood cell, LPS, 24 hours, read-out: IC50, LPS-induced TNFα release; for Max. eff., LPS-induced TNFα repression: prednisolone = 100%
# From the text: Hereafter, supernatant was carefully collected and tested at the most optimal dilution (predetermined by a titration study on control samples) in a human TNFα-specific ELISA (for the LPS stimulated samples) or in a human IL-5-specific or human G-CSF-specific ELISA (for the PMA/anti-CD28 stimulated samples) (Duoset, R&D systems USA).
# GR = target: T1, GR (Homo sapiens, UniProt P04150); assay: ChIP-Seq analysis of GR binding to DNA in THP-1 cells; assay type: cell-based; parameters: endogenous in cells; host or cells: THP-1; settings: for number of ChIP-Seq clusters compared to vehicle: THP-1, 1 μM, 1 hour
# T1 sequence (P04150 1-777): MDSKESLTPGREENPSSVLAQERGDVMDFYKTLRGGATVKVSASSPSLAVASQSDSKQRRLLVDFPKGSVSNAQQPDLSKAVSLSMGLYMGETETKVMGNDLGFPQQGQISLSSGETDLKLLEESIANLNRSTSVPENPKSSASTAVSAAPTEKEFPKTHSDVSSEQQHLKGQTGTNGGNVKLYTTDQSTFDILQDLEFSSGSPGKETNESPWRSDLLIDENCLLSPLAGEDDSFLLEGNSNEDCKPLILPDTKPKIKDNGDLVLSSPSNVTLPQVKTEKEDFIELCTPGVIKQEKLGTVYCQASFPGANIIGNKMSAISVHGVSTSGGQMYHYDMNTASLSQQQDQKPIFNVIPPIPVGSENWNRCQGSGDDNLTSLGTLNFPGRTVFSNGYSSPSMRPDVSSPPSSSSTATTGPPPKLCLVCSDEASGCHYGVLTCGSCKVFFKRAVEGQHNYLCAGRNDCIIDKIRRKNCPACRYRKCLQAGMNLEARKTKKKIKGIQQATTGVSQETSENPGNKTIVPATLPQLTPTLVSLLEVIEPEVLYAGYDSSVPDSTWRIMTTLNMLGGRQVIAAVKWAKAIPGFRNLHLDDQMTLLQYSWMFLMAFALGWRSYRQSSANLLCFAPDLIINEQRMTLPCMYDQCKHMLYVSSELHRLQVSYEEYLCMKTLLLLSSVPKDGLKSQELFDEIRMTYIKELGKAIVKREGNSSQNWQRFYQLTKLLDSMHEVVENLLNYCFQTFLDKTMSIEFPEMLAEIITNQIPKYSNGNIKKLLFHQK
# Method: From the THP-1 samples that were used for gene expression analysis after 6 hours, samples were drawn after 1 hour and used for ChIP–Seq analysis at Genpathway (Carlsbad, CA). For precipitation of genomic DNA regions antibody against GR (Santa Cruz sc-8992) was used. Details are provided in SI text. The obtained amplified DNA libraries were sent to Illumina Sequencing Services (San Diego, CA) for sequencing on a Genome Analyzer II. Sequence files were analyzed with the Genomatix Genome Analyzer Workbench from Genomatix (Genomatix Software GmbH, Munich). Sequences were clustered using default parameter settings and aligned against the human genome version GRCh37/hg19. Clusters were merged using the Replicate Analysis module from the Workbench package (more detailed information in SI text).
# Cells were fixed with 1% formaldehyde for 15 min and quenched with 0.125 M glycine. Chromatin was isolated by adding lysis buffer, followed by disruption with a Dounce homogenizer (cells) or motor pestle (tissue). Lysates were sonicated and the DNA sheared to an average length of 300-500 bp. Genomic DNA (Input) was prepared by treating aliquots of chromatin with RNase, proteinase K and heat for de-crosslinking, followed by ethanol precipitation. Pellets were resuspended and the resulting DNA was quantified on a NanoDrop spectrophotometer. Extrapolation to the original chromatin volume allowed quantitation of the total chromatin yield.
# An aliquot of chromatin (28.5 ug) was precleared with protein A agarose beads (Invitrogen). Genomic DNA regions of interest were isolated using 4 ug antibody against GR (Santa Cruz sc-8992). Complexes were washed, eluted from the beads with SDS buffer, and subjected to RNase and proteinase K treatment. Crosslinks were reversed by incubation overnight at 65 C, and ChIP DNA was purified by phenol-chloroform extraction and ethanol precipitation.
# THP-1 cells = assay: Gene expression profiling (microarray) in THP-1 cells; assay type: cell-based, human; settings: THP-1, 1 μM, 6 hours, top 25 genes, prednisolone set at 100%; for Max. eff., mean repression of genes, microarray: IFNγ/TNFα; for Max. eff., mean induction of genes, microarray: non-stimulated
# Method: THP-1 cells were incubated with glucocorticoid in the presence of either DMSO (control) or IFNγ/TNFα (220 ng/ml/375 ng/ml). After 6 hours total RNA was isolated and further processed for microarray hybridization as described for the HepG2 cells. The data from all microarray experiments have been deposited in the NCBI Gene Expression Omnibus (GEO) under accession number (identifier will be included in proof). […] Expression of FKBP51, MCP-1, IL-6 and IL-8 protein was measured by specific […]; #A[…] [MCP-1], #A[…] [IL-6] and #A[…] [IL-8]) according to the manufacturer manual. […] Expression of FKBP51, DUSP1 and GILZ was measured by Q-PCR according to the same procedure as described for the HepG2 cells. In this case the following primer-pairs were used: for GAPDH: [NT] and [NT]; for FKBP51: [NT] and [NT]; for DUSP1: [NT] and [NT]; for GILZ: [NT] and [NT]. For the evaluation of protein expression, cells were incubated overnight with a whole dose range of compounds. Supernatants were collected to determine cytokine levels and cell lysates were generated by repeated freeze-thaw cycles to measure expression of FKBP51 protein. Expression of FKBP51, MCP-1, IL-6 and IL-8 was measured by specific […]; #A[…] [MCP-1], #A[…] [IL-6] and #A[…] [IL-8]) according to the manufacturer manual. […] Samples were incubated for 60 min at 23 C. […] Plates were measured using an EnVision-Alpha Reader.
# [2] = system: murine collagen-induced arthritis (CIA) model; settings: for disease score (arthritis score): oral, once daily 3 weeks, therapeutic
# Method: At day 0 mice were immunized at the base of the tail with 100 μg bovine type II collagen (UMC Nijmegen, The Netherlands) in Complete Freund's Adjuvant (CFA, Difco) enriched with 2 mg/ml Mycobacterium tuberculosis H37RA (Difco). At day 21 mice were boosted by an i.p. injection of 100 μg bovine type II collagen dissolved in saline. After disease onset, mice with an arthritis score ranging from 0.25 to 1.25 were divided into matched groups (n = 12). […] The clinical severity of arthritis (arthritis score) was graded and scored as described [51]. To assess the effects of treatments, the area under the curve (AUC) of arthritis score (subtracting baseline AUC of arthritis score on day 0) was used. One day after the final treatment animals were sacrificed and the knee and ankle joints were imaged using a Faxitron X-ray, Modl MX-20 digital imaging system and analysed using Specimen (Version 2.0.1). The bone destruction was scored on a scale of 0–5 as described previously [51]. The cumulative scores of 2 joints (right ankle and knee) were used as radiological scores. From H&H-stained sections, articular cartilage destruction and inflammatory infiltrate in the right knee joint were scored on a scale of 0–3. The whole study was carried out in a blinded fashion. Statistical analysis was performed using one-way ANOVA.
Structure (SMILES),IC50 [1] [nM],"Max. eff., LPS-induced TNFα repression [1]",number of ChIP-Seq clusters compared to vehicle (GR; inflammatory condition),number of ChIP-Seq clusters compared to vehicle (GR; non-stimulated condition),"binding sites also contained within the prednisolone set (GR; non-stimulated, 2080 vs 9413 sites) [%]","Max. eff., mean repression of genes, microarray (THP-1 cells) [%]","Max. eff., mean induction of genes, microarray (THP-1 cells; listed as Org) [%]",disease symptoms ([2]; 1.5 mg/kg/day oral),"bone damage by X-ray on knees and paws ([2]; 0.5 and 1.5 mg/kg/day, end of study)","potency relative to prednisolone ([2]; CIA, oral once daily)",disease score (arthritis score) [2],"histopathology of knee joints: inflammatory infiltrates, cartilage destruction, bone apposition ([2]; two highest doses (0.5 and 1.5 mg/kg/day))","Max. eff., mean induction of genes, microarray (THP-1 cells) [%]"
Cc1nnsc1C(=O)N[C@H]1CCN2c3ccc(C#N)cc3[C@@H](C)c3ccccc3[C@@H]2C1 [Org 214007-0],50,68 (±8.7) %,2502,2080,99.5,48.3,18.9,total suppression,significant reduction,about 3 fold,dose-dependent reduction,significant reduction,–
"C[C@]12C=CC(=O)C=C1CC[C@@H]1[C@@H]2[C@@H](O)C[C@@]2(C)[C@H]1CC[C@]2(O)C(=O)CO [prednisolone, reference compound]",27,100%,3471,9413,–,100,–,–,–,–,dose-dependent reduction,–,100
